The results in this text go back to ChEMBL document CHEMBL5352447, “Development of [1,2]oxazoloisoindoles tubulin polymerization inhibitors: Further chemical modifications and potential therapeutic effects against lymphomas” (Eur J Med Chem, 2022).

The structures appear in SMILES notation.

One test concerns CAKI-1. Kind of test: Antiproliferative activity against human CAKI-1 cells assessed as cell growth inhibition incubated for 72 hrs by MTT assay. It is filed as functional.
The next test deals with NCI-H460. The test is described as follows: Antiproliferative activity against human NCI-H460 cells assessed as cell growth inhibition incubated for 72 hrs by MTT assay. The test is classed as functional.
A further test deals with K562. The test is described as follows: Antiproliferative activity against human K562 cells assessed as cell growth inhibition incubated for 72 hrs by MTT assay. It is filed as functional.
For a further test, the system named is IGROV-1. Kind of test: Antiproliferative activity against human IGROV-1 cells assessed as cell growth inhibition incubated for 72 hrs by MTT assay. It is filed as functional.
The test system of another test is SF-268. The test is described as follows: Antiproliferative activity against human SF-268 cells assessed as cell growth inhibition incubated for 72 hrs by MTT assay. The test is classed as functional.
Another test relates to SU-DHL10. Kind of test: Antiproliferative activity against human SU-DHL-10 cells assessed as proliferating cells at 1 uM incubated for 72 hrs by MTT assay relative to control. The test is classed as functional.
The test system of a further test is MDA-MB-468. Kind of test: Antiproliferative activity against human MDA-MB-468 cells assessed as cell growth inhibition incubated for 72 hrs by MTT assay. The test is classed as functional.
A further test concerns HOP-92. Kind of test: Antiproliferative activity against human HOP-92 cells assessed as cell growth inhibition incubated for 72 hrs by MTT assay. The test is classed as functional.
Another test has as its system MCF7. Kind of test: Cytotoxicity against human MCF7 cells assessed as cell growth inhibition. The test is classed as functional, cell-based.
Another test concerns U-251. The test is described as follows: Antiproliferative activity against human U-251 cells assessed as cell growth inhibition incubated for 72 hrs by MTT assay. It is filed as functional.
In the next test the test system is SR. The test is described as follows: Antiproliferative activity against human SR cells assessed as cell growth inhibition incubated for 72 hrs by MTT assay. The test is classed as functional.
Another test has as its system RPMI-8226. Kind of test: Antiproliferative activity against human RPMI-8226 cells assessed as cell growth inhibition incubated for 72 hrs by MTT assay. The test is classed as functional.
In another test the target is Tubulin. Kind of test: Inhibition of tubulin assembly (unknown origin). It is filed as protein-complex assay, Homo sapiens.
The next test concerns the target Tubulin (Homo sapiens) (UniProt P68371+Q9H4B7+P0DPH7+P68366+Q13509+Q71U36+P04350+Q3ZCM7+P07437+P68363+Q9BQE3+Q6PEY2+Q13885+Q9BVA1+Q9BUF5). Kind of test: Inhibition of [3H]Colchicine binding to tubulin (unknown origin) at 5 uM relative to control. The test is classed as protein-complex assay.
The test system of a further test is NCI-H322M. The test is described as follows: Antiproliferative activity against human NCI-H322M cells assessed as cell growth inhibition incubated for 72 hrs by MTT assay. It is filed as functional.
A further test has as its system A549. The test is described as follows: Antiproliferative activity against human A549 cells assessed as cell growth inhibition incubated for 72 hrs by MTT assay. The test is classed as functional.
The subject of a further test is SN12C. The test is described as follows: Antiproliferative activity against human SN12C cells assessed as cell growth inhibition incubated for 72 hrs by MTT assay. It is filed as functional.
A further test concerns Malme-3M. Kind of test: Antiproliferative activity against human Malme-3M cells assessed as cell growth inhibition incubated for 72 hrs by MTT assay. It is filed as functional.
The nature of test [1]: Antiproliferative activity against human HBL1 cells assessed as proliferating cells at 1 uM incubated for 72 hrs by MTT assay relative to control. The test is classed as functional.
Another test relates to OVCAR-8. Kind of test: Antiproliferative activity against human OVCAR-8 cells assessed as cell growth inhibition incubated for 72 hrs by MTT assay. The test is classed as functional.
The next test has as its system M14. Kind of test: Antiproliferative activity against human M14 cells assessed as cell growth inhibition incubated for 72 hrs by MTT assay. The test is classed as functional.
Test [2] can be described thus: Antiproliferative activity against human MINO cells assessed as inhibition of cell proliferation incubated for 72 hrs by MTT assay. The test is classed as functional, cell-based.
The test system of another test is MDA-MB-435. Kind of test: Antiproliferative activity against human MDA-MB-435 cells assessed as cell growth inhibition incubated for 72 hrs by MTT assay. It is filed as functional.
Another test concerns OVCAR-3. Kind of test: Antiproliferative activity against human OVCAR-3 cells assessed as cell growth inhibition incubated for 72 hrs by MTT assay. The test is classed as functional.

As for `COc1ccc(Cn2cc3c(c2-c2cc(OC)c(OC)c(OC)c2)CCc2c(CN4CCCC4)noc2-3)cc1`, the GI50 in the test with CAKI-1 came out at 450 nM; in the test on NCI-H460, 570 nM; in the test on K562 it was 350 nM; in the test with IGROV-1, 890 nM; with SF-268, 3150 nM; in the test with MDA-MB-468 it was 280 nM. The 50% growth inhibitory concentration (GI50) in the test on HOP-92 stood at 1350 nM; with U-251 it was 540 nM; with SR, 360 nM; in the test on RPMI-8226, 1270 nM; in the test on NCI-H322M, 5550 nM; in the test on A549 it was 1330 nM. The GI50 amounted to 4430 nM in the test with SN12C; 500 nM with Malme-3M; 3270 nM with OVCAR-8; 580 nM in the test with M14; 240 nM in the test with MDA-MB-435. The Activity with SU-DHL10 is listed as 0.3%; in [1] it was 30.6%. Also, the IC50 in the test with MCF7 came to 1100 nM; against Tubulin it was 2800 nM; in test [2] it was 500 nM. The inhibition on Tubulin (Homo sapiens) was 24%.
For the molecule `COc1ccc(Cn2cc3c(c2-c2cc(OC)c(OC)c(OC)c2)CCc2c(CO)noc2-3)cc1`, the concentration for 50% growth inhibition (GI50) came to 340 nM with NCI-H460; 490 nM in the test with IGROV-1; 1060 nM in the test with SF-268; 330 nM in the test on MDA-MB-468; 3390 nM with HOP-92; 330 nM in the test on U-251. The GI50 in the test on SR is 210 nM; with RPMI-8226, 420 nM; in the test with NCI-H322M, 640 nM; in the test with A549, 420 nM; in the test on SN12C it was 720 nM; in the test on Malme-3M, 13500 nM. Besides, the concentration for 50% growth inhibition (GI50) in the test with OVCAR-3 was determined as 220 nM; in the test with OVCAR-8, 380 nM; in the test with M14, 150 nM; with MDA-MB-435 it was 30 nM. Further, the Activity with SU-DHL10 is 62.1%; in test [1] it was 80.3%. Moreover, the IC50 in test [2] amounted to 1400 nM.
Regarding `CCOC(=O)c1noc2c1CCc1c-2cn(Cc2ccc(OC)cc2)c1-c1cc(OC)c(OC)c(OC)c1`, the GI50 in the test with NCI-H460 came out at 1000 nM; with IGROV-1 it was 2450 nM; in the test on SF-268, 8070 nM; in the test with MDA-MB-468, 5620 nM; in the test on HOP-92, 2720 nM; in the test on U-251, 540 nM. In addition, the GI50 with SR stood at 2090 nM; in the test on RPMI-8226, 2850 nM; in the test with NCI-H322M, 5460 nM; in the test with A549, 3800 nM; in the test on SN12C it was 3920 nM; with OVCAR-3 it was 370 nM. Further, the GI50 is 3040 nM with OVCAR-8, 410 nM in the test with M14 and 570 nM with MDA-MB-435. The Activity is reported as 59% in the test on SU-DHL10 and 70.1% in test [1]. For the same molecule, the IC50 in test [2] amounted to 1400 nM.
On to `COc1ccc(Cn2cc3c(c2-c2cc(OC)c(OC)c(OC)c2)CCc2c(CN4CCOCC4)noc2-3)cc1`, for which the concentration for 50% growth inhibition (GI50) turned out to be 380 nM in the test with CAKI-1; 520 nM in the test with NCI-H460; 430 nM in the test on K562; 810 nM with IGROV-1; 780 nM in the test on SF-268; 340 nM in the test with MDA-MB-468. The GI50 in the test with HOP-92 came to 900 nM; in the test with U-251, 880 nM; in the test on SR, 380 nM; in the test with RPMI-8226, 770 nM; with A549, 1130 nM; in the test with SN12C, 3810 nM. For the same molecule, the GI50 was found to be 500 nM with Malme-3M, 1920 nM in the test on OVCAR-8, 560 nM in the test with M14 and 250 nM in the test with MDA-MB-435. Further, the Activity worked out at 0.7% in the test with SU-DHL10 and 33.9% in test [1]. The IC50 with MCF7 amounted to 470 nM; on Tubulin it was 1000 nM; in test [2] it was 500 nM. This molecule yielded an inhibition on Tubulin (Homo sapiens) of 33%.
